# Columns and labels:
# Assay type in all cases: in vivo
# Avena fatua = experiment: Test Example 4: herbicidal effect by application to foliage (diluvial soil, plastic box); settings: for I: herbicidal effect on Avena fatua: application to foliage, application herbicide amount 320 g/ha; for I (Avena fatua) herbicidal effect grade: foliage application, 320 g/ha
# How it was run: (§1)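 Scores run from 0 (herbicidal ratio ≤5%) to 5 (≥90%, almost fully withered) and were assessed three weeks after foliar spraying. Seedlings had been raised for 14 days at 25-30° C in sterilized diluvial soil before treatment, with the emulsion diluted in water to the stated g/ha dose.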
# Chenopodium album = experiment: as above; settings: for O: herbicidal effect on Chenopodium album: application to foliage, application herbicide amount 320 g/ha; for O (Chenopodium album) herbicidal effect grade: foliage application, 320 g/ha
# How it was run: as §1
# Abutilon theophrasti = experiment: as above; settings: for M: herbicidal effect on Abutilon theophrasti: application to foliage, application herbicide amount 320 g/ha; for M (Abutilon theophrasti) herbicidal effect grade: foliage application, 320 g/ha
# How it was run: as §1
# Amaranthus retroflexus = experiment: as above; settings: for N: herbicidal effect on Amaranthus retroflexus: application to foliage, application herbicide amount 320 g/ha; for N (Amaranthus retroflexus) herbicidal effect grade: foliage application, 320 g/ha
# How it was run: as §1
# [1] = system: Echinochloa crus-galli var. crus-galli; experiment: as above; settings: for H: herbicidal effect on Echinochloa crus-galli var. crus-galli: application to foliage, application herbicide amount 320 g/ha; for H (Echinochloa crus-galli var. crus-galli) herbicidal effect grade: foliage application, 320 g/ha
# How it was run: as §1
# Apera spica-venti. = experiment: as above; settings: for L: herbicidal effect on Apera spica-venti.: application to foliage, application herbicide amount 320 g/ha; for L (Apera spica-venti.) herbicidal effect grade: foliage application, 320 g/ha
# How it was run: as §1
# Lolium multiflorum Lam. = experiment: as above; settings: for K: herbicidal effect on Lolium multiflorum Lam.: application to foliage, application herbicide amount 320 g/ha; for K (Lolium multiflorum Lam.) herbicidal effect grade: foliage application, 320 g/ha
# How it was run: as §1
# [2] = system: transplanted Oryza sativa; experiment: Test Example 1: effect on crop, application before weed generation in submerged conditions; settings: Application herbicide amount 320 g/ha; Seventeenth Table
# How it was run: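 Alluvial soil in Wagner pots flooded to 4 cm water depth; weed seeds sown and 2.5 leaf stage rice seedlings transplanted. Emulsion diluted in water applied to water surface on sowing day at stated g/ha. Greenhouse 25° C. to 30° C.; effects scored 0–5 by herbicidal ratio after three weeks.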
# [3] = system: directly sowed Oryza sativa; experiment: Test Example 3: effect on crop by application to foliage (Wagner pot, water depth 0.1-0.5 cm); settings: Nineteenth Table, application to foliage
# How it was run: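 Plants are raised 14 days from seed in flooded-surface Wagner pots at 25–30 °C, sprayed on stems and leaves with diluted emulsion at a predetermined rate, and rated three weeks on using a 0–5 herbicidal-ratio scale (5 ≥90%).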
# [4] = application herbicide amount 320 g/ha
Compound,I: herbicidal effect on Avena fatua (Avena fatua),O: herbicidal effect on Chenopodium album (Chenopodium album),M: herbicidal effect on Abutilon theophrasti (Abutilon theophrasti),N: herbicidal effect on Amaranthus retroflexus (Amaranthus retroflexus),H: herbicidal effect on Echinochloa crus-galli var. crus-galli [1],L: herbicidal effect on Apera spica-venti. (Apera spica-venti.),K: herbicidal effect on Lolium multiflorum Lam. (Lolium multiflorum Lam.),a: transplanted Oryza sativa (effect on crop grade) [2],"b (effect on crop grade) [3, 4]",b (effect on crop grade) ([3]; application herbicide amount 200 g/ha),I (Avena fatua) herbicidal effect grade (Avena fatua),O (Chenopodium album) herbicidal effect grade (Chenopodium album),M (Abutilon theophrasti) herbicidal effect grade (Abutilon theophrasti),N (Amaranthus retroflexus) herbicidal effect grade (Amaranthus retroflexus),H (Echinochloa crus-galli var. crus-galli) herbicidal effect grade [1],L (Apera spica-venti.) herbicidal effect grade (Apera spica-venti.),K (Lolium multiflorum Lam.) herbicidal effect grade (Lolium multiflorum Lam.)
C=CCN(C)c1nnc2c(C(=O)Nc3nnco3)ccc(C(F)(F)F)n12 [1-172],2 (Herbicidal ratio of 20% or more and less than 40%),5 (Herbicidal ratio of 90% or more (almost completely withered)),5 (Herbicidal ratio of 90% or more (almost completely withered)),5 (Herbicidal ratio of 90% or more (almost completely withered)),5 (Herbicidal ratio of 90% or more (almost completely withered)),1 (Herbicidal ratio of 5% or more and less than 20%),1 (Herbicidal ratio of 5% or more and less than 20%),1 (Herbicidal ratio of 5% or more and less than 20%),3 (Herbicidal ratio of 40% or more and less than 70%),–,–,–,–,–,–,–,–
Cn1nnnc1NC(=O)c1ccc(C(F)(F)F)n2cnnc12 [2-001],1 (Herbicidal ratio of 5% or more and less than 20%),5 (Herbicidal ratio of 90% or more (almost completely withered)),5 (Herbicidal ratio of 90% or more (almost completely withered)),5 (Herbicidal ratio of 90% or more (almost completely withered)),4 (Herbicidal ratio of 70% or more and less than 90%),0 (Herbicidal ratio of 5% or less (almost no effect)),1 (Herbicidal ratio of 5% or more and less than 20%),0 (Herbicidal ratio of 5% or less (almost no effect)),1 (Herbicidal ratio of 5% or more and less than 20%),–,–,–,–,–,–,–,–
Cc1nnc2c(C(=O)Nc3nnnn3C)ccc(C(F)(F)F)n12 [2-002],3 (Herbicidal ratio of 40% or more and less than 70%),5 (Herbicidal ratio of 90% or more (almost completely withered)),5 (Herbicidal ratio of 90% or more (almost completely withered)),5 (Herbicidal ratio of 90% or more (almost completely withered)),5 (Herbicidal ratio of 90% or more (almost completely withered)),1 (Herbicidal ratio of 5% or more and less than 20%),1 (Herbicidal ratio of 5% or more and less than 20%),0 (Herbicidal ratio of 5% or less (almost no effect)),2 (Herbicidal ratio of 20% or more and less than 40%),–,–,–,–,–,–,–,–
CC(C)c1nnc2c(C(=O)Nc3nnnn3C)ccc(C(F)(F)F)n12 [2-003],3 (Herbicidal ratio of 40% or more and less than 70%),5 (Herbicidal ratio of 90% or more (almost completely withered)),5 (Herbicidal ratio of 90% or more (almost completely withered)),5 (Herbicidal ratio of 90% or more (almost completely withered)),5 (Herbicidal ratio of 90% or more (almost completely withered)),5 (Herbicidal ratio of 90% or more (almost completely withered)),3 (Herbicidal ratio of 40% or more and less than 70%),4 (Herbicidal ratio of 70% or more and less than 90%),–,0 (Herbicidal ratio of 5% or less (almost no effect)),–,–,–,–,–,–,–
Cn1nnnc1NC(=O)c1ccc(C(F)(F)F)n2c(CS(C)(=O)=O)nnc12 [2-034],–,–,–,–,–,–,–,4 (Herbicidal ratio of 70% or more and less than 90%),5 (Herbicidal ratio of 90% or more (almost completely withered)),–,5 (Herbicidal ratio of 90% or more (almost completely withered)),5 (Herbicidal ratio of 90% or more (almost completely withered)),5 (Herbicidal ratio of 90% or more (almost completely withered)),5 (Herbicidal ratio of 90% or more (almost completely withered)),5 (Herbicidal ratio of 90% or more (almost completely withered)),5 (Herbicidal ratio of 90% or more (almost completely withered)),5 (Herbicidal ratio of 90% or more (almost completely withered))
Cn1nnnc1NC(=O)c1ccc(C(F)(F)F)n2c(C[S+]([O-])CC(F)(F)F)nnc12 (stereo not drawn) [2-035],–,–,–,–,–,–,–,4 (Herbicidal ratio of 70% or more and less than 90%),5 (Herbicidal ratio of 90% or more (almost completely withered)),–,4 (Herbicidal ratio of 70% or more and less than 90%),5 (Herbicidal ratio of 90% or more (almost completely withered)),5 (Herbicidal ratio of 90% or more (almost completely withered)),5 (Herbicidal ratio of 90% or more (almost completely withered)),5 (Herbicidal ratio of 90% or more (almost completely withered)),4 (Herbicidal ratio of 70% or more and less than 90%),4 (Herbicidal ratio of 70% or more and less than 90%)
Cn1nnnc1NC(=O)c1ccc(C(F)(F)F)n2c(S(C)(=O)=O)nnc12 [2-037],–,–,–,–,–,–,–,4 (Herbicidal ratio of 70% or more and less than 90%),5 (Herbicidal ratio of 90% or more (almost completely withered)),–,5 (Herbicidal ratio of 90% or more (almost completely withered)),5 (Herbicidal ratio of 90% or more (almost completely withered)),5 (Herbicidal ratio of 90% or more (almost completely withered)),5 (Herbicidal ratio of 90% or more (almost completely withered)),5 (Herbicidal ratio of 90% or more (almost completely withered)),5 (Herbicidal ratio of 90% or more (almost completely withered)),5 (Herbicidal ratio of 90% or more (almost completely withered))
CCS(=O)(=O)c1nnc2c(C(=O)Nc3nnnn3C)ccc(C(F)(F)F)n12 [2-038],–,–,–,–,–,–,–,4 (Herbicidal ratio of 70% or more and less than 90%),5 (Herbicidal ratio of 90% or more (almost completely withered)),–,5 (Herbicidal ratio of 90% or more (almost completely withered)),5 (Herbicidal ratio of 90% or more (almost completely withered)),5 (Herbicidal ratio of 90% or more (almost completely withered)),5 (Herbicidal ratio of 90% or more (almost completely withered)),5 (Herbicidal ratio of 90% or more (almost completely withered)),5 (Herbicidal ratio of 90% or more (almost completely withered)),5 (Herbicidal ratio of 90% or more (almost completely withered))

# Reference: patent US9708314B2, “Heterocyclic amide compound” (NISSAN CHEMICAL INDUSTRIES, LTD., priority 2013, dated 2017)
